This note sets out measurements from ChEMBL document CHEMBL1201862, “PubChem BioAssay data set” (2004).

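Assay format: 96-well plates, 48-hour exposure. GI50 = concentration required for 50% inhibition of growth.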 Calls of active or inactive are those of the source. Cut-off read from the data, not from the text of the source: active = GI50 up to about 1.1 µM and inactive = higher. Some results are limits rather than exact numbers.

Test systems include M14; OVCAR-8; NCI-H23; HT-29; MDA-N; Malme-3M; NCI/ADR-RES; U-251; LOX IMVI; UACC-257; PC-3; 786-0; OVCAR-3; MDA-MB-231; HCT-116; ACHN; SN12C; CCRF-CEM; RPMI-8226; SK-OV-3.
What all share (test): NCI anticancer screen, dose series, 48 h

On to `O=C(C[N+]1(c2ccccc2)CCOCC1)c1ccccc1`, for which the GI50 in the assay on M14, with OVCAR-8, with NCI-H23, in the assay on HT-29, with MDA-N and in the assay with Malme-3M was > 100 µM (inactive) throughout. Besides, the GI50 was > 100 µM (inactive) in the assay with NCI/ADR-RES; > 100 µM (inactive) with U-251; > 100 µM (inactive) in the assay with LOX IMVI; 72.8 µM (inactive) in the assay on UACC-257; > 100 µM (inactive) in the assay on PC-3; 60.5 µM (inactive) in the assay on 786-0. Moreover, the GI50 in the assay with OVCAR-3, with MDA-MB-231, in the assay on HCT-116, in the assay on ACHN and in the assay with SN12C was > 100 µM (inactive) in each case.

Take `Cc1nnc(N)nc1/C=C\c1cccs1`: the GI50 in the assay on CCRF-CEM is 16.7 µM (inactive); in the assay with M14, 16.2 µM (inactive); in the assay on OVCAR-8, 17 µM (inactive); in the assay with NCI-H23, 17.6 µM (inactive); in the assay with RPMI-8226, 22.4 µM (inactive); in the assay with HT-29, 14.1 µM (inactive). Also, the GI50 was 36.5 µM (inactive) in the assay with SK-OV-3; 13.4 µM (inactive) with Malme-3M; 16.7 µM (inactive) in the assay on NCI/ADR-RES; 29.9 µM (inactive) with U-251; 29.6 µM (inactive) in the assay on LOX IMVI; 32.6 µM (inactive) in the assay with UACC-257. Besides, the GI50 with PC-3 was 17.2 µM (inactive); with 786-0, 18.6 µM (inactive); in the assay on MDA-MB-231, 87.3 µM (inactive); in the assay on HCT-116, 17.3 µM (inactive); in the assay with ACHN it was 15 µM (inactive); in the assay with SN12C it was > 10 µM (inactive).

For `CC1=CC(=O)/C(=C/NC(=S)c2ccccc2)C(=O)O1`, the GI50 with M14, in the assay on OVCAR-8, in the assay on NCI-H23, in the assay with HT-29, in the assay with MDA-N and in the assay on SK-OV-3 was > 100 µM (inactive) each time. Besides, the GI50 in the assay with NCI/ADR-RES, in the assay on U-251, in the assay with LOX IMVI, in the assay with UACC-257, with PC-3 and in the assay with 786-0 was > 100 µM (inactive) in each case. The GI50 with OVCAR-3, in the assay with MDA-MB-231, in the assay on HCT-116, in the assay on ACHN and with SN12C was > 100 µM (inactive) in each case.

`Nc1ccn(C2OC(COP(=O)(O)OCC3OC(n4cc(F)c(=O)[nH]c4=O)CC3O)C(O)C2O)c(=O)n1` (stereo not drawn): the GI50 in the assay on CCRF-CEM is 0.0161 µM (active); with M14, 0.183 µM (active); in the assay with OVCAR-8 it was 1.37 µM (inactive); with NCI-H23, 0.314 µM (active); in the assay on HT-29, 4.3 µM (inactive); in the assay with MDA-N, 26.4 µM (inactive). In addition, the GI50 in the assay with SK-OV-3 was 26.7 µM (inactive); with Malme-3M it was 3.07 µM (inactive); with NCI/ADR-RES, 9.23 µM (inactive); with U-251, 1.77 µM (inactive); in the assay on LOX IMVI, 0.0353 µM (active); with UACC-257, > 21.5 µM (inactive). Besides, the GI50 in the assay with PC-3 was > 100 µM (inactive); in the assay on 786-0, 1.33 µM (inactive); in the assay with OVCAR-3, > 100 µM (inactive); with HCT-116, 0.687 µM (active); in the assay on ACHN it was 0.0447 µM (active); in the assay with SN12C it was 3.05 µM (inactive).

With `O=C(NC(=O)c1cc(-c2ccccc2)n[nH]1)c1ccccc1`, the GI50 in the assay on CCRF-CEM, in the assay on M14, in the assay with OVCAR-8, in the assay with NCI-H23, in the assay with HT-29 and in the assay on MDA-N was > 100 µM (inactive) throughout. The GI50 in the assay with SK-OV-3, in the assay with NCI/ADR-RES, in the assay on U-251, in the assay on LOX IMVI, in the assay with UACC-257 and in the assay with PC-3 was > 100 µM (inactive) in each case. In addition, the GI50 in the assay on 786-0, with OVCAR-3, in the assay with MDA-MB-231, in the assay on HCT-116, with ACHN and with SN12C was > 100 µM (inactive) throughout.

With `CC(C)(C)[Si](C)(C)OCCc1ccccc1C1CC2(S(=O)(=O)c3ccccc3)ON1CC2S(=O)(=O)c1ccccc1` (stereo not drawn), the GI50 in the assay on CCRF-CEM, with M14, in the assay on OVCAR-8, in the assay with NCI-H23, in the assay with HT-29 and with MDA-N was > 100 µM (inactive) each time. In addition, the GI50 in the assay with SK-OV-3, in the assay on NCI/ADR-RES, with U-251, in the assay with UACC-257, in the assay on 786-0 and in the assay with OVCAR-3 was > 100 µM (inactive) throughout. Moreover, the GI50 in the assay with MDA-MB-231, in the assay on HCT-116, in the assay on ACHN and in the assay on SN12C was > 100 µM (inactive) in each case.

As to `Nc1ccccc1/C=C\c1ccccc1`, the GI50 in the assay with CCRF-CEM, with M14, with OVCAR-8, in the assay with NCI-H23, with RPMI-8226 and with HT-29 was > 100 µM (inactive) in each case. The GI50 in the assay with MDA-N, in the assay with SK-OV-3, with Malme-3M, in the assay with NCI/ADR-RES, in the assay on U-251 and in the assay with UACC-257 was > 100 µM (inactive) each time. For the same compound, the GI50 with PC-3, in the assay with 786-0, with OVCAR-3, with HCT-116, in the assay on ACHN and in the assay with SN12C was > 100 µM (inactive) throughout.

Turning to `CO/C(N)=C(C#N)/N=C/c1cccs1`, the GI50 in the assay on CCRF-CEM was 66.4 µM (inactive); with M14 it was 41.2 µM (inactive); with OVCAR-8, > 100 µM (inactive); in the assay on NCI-H23 it was > 100 µM (inactive); in the assay on HT-29, 25.9 µM (inactive); with MDA-N, 27.4 µM (inactive). Also, the GI50 is > 100 µM (inactive) in the assay on SK-OV-3; 35.3 µM (inactive) in the assay on Malme-3M; 98.2 µM (inactive) in the assay on NCI/ADR-RES; 74 µM (inactive) with U-251; 42.6 µM (inactive) in the assay with LOX IMVI; 32.5 µM (inactive) in the assay with UACC-257. For the same compound, the GI50 in the assay on PC-3 is > 100 µM (inactive); in the assay on 786-0, > 100 µM (inactive); with OVCAR-3 it was 49.8 µM (inactive); in the assay with MDA-MB-231, > 100 µM (inactive); in the assay with HCT-116, 42.2 µM (inactive); in the assay with ACHN it was > 100 µM (inactive). Also, the GI50 with SN12C is > 100 µM (inactive).

With `Cc1nc(Cl)nc(Cl)c1C`, the GI50 in the assay on CCRF-CEM, in the assay with M14, in the assay with OVCAR-8, with NCI-H23, in the assay with RPMI-8226 and with HT-29 was > 100 µM (inactive) in each case. Also, the GI50 in the assay on SK-OV-3, in the assay on Malme-3M, in the assay with NCI/ADR-RES, in the assay on U-251, in the assay with LOX IMVI and in the assay on UACC-257 was > 100 µM (inactive) in each case. For the same compound, the GI50 in the assay on PC-3, in the assay on 786-0, with OVCAR-3, in the assay with ACHN and in the assay on SN12C was > 100 µM (inactive) in each case.

Take `Cn1c2ccc3cc2c(=S)c2cc(ccc21)OCCOCCOCCOCCOCCOCCO3`: the GI50 in the assay on CCRF-CEM, in the assay with M14, in the assay on OVCAR-8, with NCI-H23, in the assay with RPMI-8226 and with HT-29 was > 10 µM (inactive) throughout. For the same compound, the GI50 with MDA-N, in the assay with SK-OV-3, in the assay with Malme-3M, with NCI/ADR-RES, in the assay on U-251 and in the assay with LOX IMVI was > 10 µM (inactive) each time. Further, the GI50 in the assay on UACC-257, with PC-3, in the assay on 786-0, with OVCAR-3, with HCT-116 and in the assay with ACHN was > 10 µM (inactive) each time. The GI50 in the assay with SN12C is > 10 µM (inactive).

`O=C1C=CC(=O)N1Nc1ccc([N+](=O)[O-])cc1[N+](=O)[O-]`: the GI50 was 14 µM (inactive) with CCRF-CEM; 19.9 µM (inactive) in the assay on M14; > 100 µM (inactive) in the assay with OVCAR-8; > 100 µM (inactive) in the assay on NCI-H23; > 44.5 µM (inactive) in the assay on RPMI-8226; > 71.4 µM (inactive) in the assay with HT-29. The GI50 in the assay with SK-OV-3 is > 100 µM (inactive); in the assay on Malme-3M, 16.8 µM (inactive); with U-251, > 100 µM (inactive); in the assay with LOX IMVI it was > 100 µM (inactive); in the assay on UACC-257, > 56.2 µM (inactive); with 786-0 it was > 70.1 µM (inactive). The GI50 in the assay on OVCAR-3 was 98.4 µM (inactive); in the assay on HCT-116, > 100 µM (inactive); in the assay on ACHN, > 100 µM (inactive); in the assay on SN12C, > 100 µM (inactive).
